Laboratory results reported in ChEMBL document CHEMBL1201862, “PubChem BioAssay data set” (2004).
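How tested: cells in 96-well plates exposed to compound for 48 hours at five concentrations. At the GI50, growth is halved.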 The source made the active and inactive calls. Cut-off read from the data, not from the text of the source: active = GI50 up to about 1.1 µM and inactive = higher.

Key:
Assay in all cases: NCI-60 cell line screen, 48 h
Hs-578T = test system: Hs-578T
SF-295 = test system: SF-295
A549 = test system: A549
NCI-H23 = test system: NCI-H23
HL-60 = test system: HL-60
HCT-15 = test system: HCT-15
ACHN = test system: ACHN
EKVX = test system: EKVX
SK-MEL-5 = test system: SK-MEL-5
UACC-257 = test system: UACC-257
NCI-H460 = test system: NCI-H460
MDA-MB-435 = test system: MDA-MB-435
OVCAR-3 = test system: OVCAR-3
SW-620 = test system: SW-620
KM12 = test system: KM12
U-251 = test system: U-251
SK-MEL-28 = test system: SK-MEL-28
SF-539 = test system: SF-539
SNB-75 = test system: SNB-75
NCI-H522 = test system: NCI-H522

SMILES | GI50 (Hs-578T) | GI50 (SF-295) | GI50 (A549) | GI50 (NCI-H23) | GI50 (HL-60) | GI50 (HCT-15) | GI50 (ACHN) | GI50 (EKVX) | GI50 (SK-MEL-5) | GI50 (UACC-257) | GI50 (NCI-H460) | GI50 (MDA-MB-435) | GI50 (OVCAR-3) | GI50 (SW-620) | GI50 (KM12) | GI50 (U-251) | GI50 (SK-MEL-28) | GI50 (SF-539) | GI50 (SNB-75) | GI50 (NCI-H522)
Cc1c2c3ccccc3nc-2n(C)c2ccccc12 | 4.8 µM (inactive) | 3.7 µM (inactive) | 1.57 µM (inactive) | 2.5 µM (inactive) | 3.29 µM (inactive) | 0.548 µM | 0.611 µM (active) | 2.43 µM (inactive) | 0.437 µM (active) | 2.11 µM (inactive) | 0.396 µM (active) | 2.9 µM (inactive) | 1.77 µM (inactive) | 1.11 µM (active) | 1.15 µM (inactive) | 2.54 µM (inactive) | 3.42 µM (inactive) | 2.99 µM (inactive) | 2.48 µM (inactive) | –
COc1ccc(-n2c(N)c(C#N)c(C#N)c2-c2ccco2)cc1 | 39.7 µM (inactive) | > 100 µM (inactive) | > 100 µM (inactive) | > 100 µM (inactive) | > 100 µM (inactive) | > 100 µM | > 100 µM (inactive) | 5.01 µM (inactive) | 78.5 µM (inactive) | > 100 µM (inactive) | – | > 100 µM (inactive) | > 100 µM (inactive) | > 100 µM (inactive) | > 100 µM (inactive) | > 100 µM (inactive) | – | > 100 µM (inactive) | 11.9 µM (inactive) | 46.7 µM (inactive)
Cc1nc(O)nc(NNCc2ccc(Cl)cc2)c1C(=O)Nc1ccc(Cl)cc1 | > 100 µM (inactive) | > 100 µM (inactive) | > 100 µM (inactive) | > 100 µM (inactive) | > 100 µM (inactive) | 50.1 µM | – | – | > 100 µM (inactive) | > 100 µM (inactive) | > 100 µM (inactive) | 88.1 µM (inactive) | > 100 µM (inactive) | > 100 µM (inactive) | > 100 µM (inactive) | > 100 µM (inactive) | > 100 µM (inactive) | > 100 µM (inactive) | > 100 µM (inactive) | –
COC(=O)C1=C(O)C(C(=O)OC)[C@]2(O)[C@H](C(=O)OC)[C@H]1C[C@@H](c1ccc(Cl)cc1)[C@H]2C(=O)OC (stereo partly specified) | 3.89 µM (inactive) | 4.28 µM (inactive) | 5.64 µM (inactive) | 7.18 µM (inactive) | 1.75 µM (inactive) | 4.59 µM | 7.45 µM (inactive) | 10.9 µM (inactive) | 6.41 µM (inactive) | 7.6 µM (inactive) | 5.45 µM (inactive) | 3.67 µM (inactive) | 2.94 µM (inactive) | 7.29 µM (inactive) | 11.5 µM (inactive) | 6.05 µM (inactive) | 9.06 µM (inactive) | 4.22 µM (inactive) | 13.6 µM (inactive) | –
CCOC(=O)/C(C(=O)Nc1ccc(F)cc1)=C(/N)N1CCCC1 | > 100 µM (inactive) | > 100 µM (inactive) | > 100 µM (inactive) | < 0.01 µM (active) | > 100 µM (inactive) | < 0.01 µM | > 100 µM (inactive) | > 100 µM (inactive) | – | > 100 µM (inactive) | > 100 µM (inactive) | > 100 µM (inactive) | > 100 µM (inactive) | > 100 µM (inactive) | > 100 µM (inactive) | > 100 µM (inactive) | > 100 µM (inactive) | > 100 µM (inactive) | > 100 µM (inactive) | > 100 µM (inactive)
COc1cc(O)c2c(c1)OCC(Cc1ccc(O)cc1)C2=O (stereo unspecified) | 45.7 µM (inactive) | 51.1 µM (inactive) | > 100 µM (inactive) | > 100 µM (inactive) | > 100 µM (inactive) | 94.8 µM | > 100 µM (inactive) | – | 44.4 µM (inactive) | > 100 µM (inactive) | > 100 µM (inactive) | > 100 µM (inactive) | 60.4 µM (inactive) | > 100 µM (inactive) | > 100 µM (inactive) | > 100 µM (inactive) | > 100 µM (inactive) | > 100 µM (inactive) | 74.3 µM (inactive) | > 100 µM (inactive)
CCC(C#N)N(Cc1ccc(CN(C(=O)c2ccccc2)C(C#N)CC)cc1)C(=O)c1ccccc1 (stereo unspecified) | 21.5 µM (inactive) | 17.6 µM (inactive) | 20.6 µM (inactive) | 25.7 µM (inactive) | 29.8 µM (inactive) | 22.2 µM | 26.4 µM (inactive) | 22.8 µM (inactive) | 12.8 µM (inactive) | 16.6 µM (inactive) | – | 25.5 µM (inactive) | 16.7 µM (inactive) | 28.5 µM (inactive) | 21.7 µM (inactive) | 22.6 µM (inactive) | – | 18.6 µM (inactive) | 22.3 µM (inactive) | 23 µM (inactive)
O=c1[nH]c(=O)c2c([nH]1)[nH]c1ccc(Br)cc12 | 45.3 µM (inactive) | > 100 µM (inactive) | > 100 µM (inactive) | > 100 µM (inactive) | 70.6 µM (inactive) | 66.1 µM | 70 µM (inactive) | > 100 µM (inactive) | 95.1 µM (inactive) | > 100 µM (inactive) | – | > 100 µM (inactive) | – | > 100 µM (inactive) | 21.8 µM (inactive) | – | – | > 100 µM (inactive) | 74.5 µM (inactive) | > 100 µM (inactive)
C[C@]12CCC(=O)C=C1CC[C@@H]1C2CC[C@]2(C)Nc3c(ncn3-c3ccc(F)cc3)CC12 (stereo partly specified) | 16.3 µM (inactive) | 15.3 µM (inactive) | 21.9 µM (inactive) | 23.1 µM (inactive) | 3.2 µM (inactive) | – | 20.8 µM (inactive) | 27.3 µM (inactive) | 13.5 µM (inactive) | 17.8 µM (inactive) | 21.7 µM (inactive) | 12.6 µM (inactive) | 29.2 µM (inactive) | 31.6 µM (inactive) | 17.2 µM (inactive) | 20.9 µM (inactive) | 29.3 µM (inactive) | 11.7 µM (inactive) | 17.5 µM (inactive) | 15 µM (inactive)
O=C(NS(=O)(=O)Nc1ccc(Cl)cc1)OCc1ccc(Cl)cc1Cl | 14.2 µM (inactive) | 17.2 µM (inactive) | 21.8 µM (inactive) | 20.2 µM (inactive) | 25.3 µM (inactive) | 34.3 µM | 38.5 µM (inactive) | – | 17.8 µM (inactive) | 46.6 µM (inactive) | 13.4 µM (inactive) | 22.1 µM (inactive) | 17.7 µM (inactive) | 33.3 µM (inactive) | 21.4 µM (inactive) | 28.6 µM (inactive) | 29.6 µM (inactive) | 19.9 µM (inactive) | 35.7 µM (inactive) | –
Cn1c(-c2ccccc2)cc(-c2ccc3c(c2)OCO3)c1-c1ccsc1 | > 100 µM (inactive) | > 100 µM (inactive) | > 100 µM (inactive) | 52.8 µM (inactive) | > 100 µM (inactive) | > 100 µM | > 100 µM (inactive) | > 100 µM (inactive) | > 100 µM (inactive) | > 100 µM (inactive) | > 100 µM (inactive) | > 100 µM (inactive) | > 100 µM (inactive) | > 100 µM (inactive) | > 100 µM (inactive) | > 100 µM (inactive) | > 100 µM (inactive) | > 100 µM (inactive) | > 100 µM (inactive) | –
